Structures are written as SMILES.

This note sets out measurements from ChEMBL document CHEMBL3853333, “Synthesis of novel arylaminoquinazolinylurea derivatives and their antiproliferative activities against bladder cancer cell line” (2016).

The nature of this assay: Antiproliferative activity against human RT112 cells after 72 hrs by MTT assay. Type of assay: functional. Particulars: RT-112, 72 h.
As to `CCOC(=O)c1ccc(NC(=O)Nc2cccc3c(Nc4cc(OC)cc(OC)c4)ncnc23)cc1`, the GI50 was 317 nM. `COc1cc(Nc2ncnc3c(NC(=O)Nc4cccc(C)c4C)cccc23)cc(OC)c1`: the GI50 was found to be 5910 nM.

Consider `COc1cc(Nc2ncnc3c(NC(=O)Nc4cc(F)cc(F)c4)cccc23)cc(OC)c1`, for which halving of growth (GI50) required 2630 nM. In the case of `COc1cc(Nc2ncnc3c(NC(=O)Nc4ccc(C(F)(F)F)cc4[N+](=O)[O-])cccc23)cc(OC)c1` it was more than 20000 nM.

The compound `COc1cc(Nc2ncnc3c(NC(=O)Nc4cccc(Cc5ccccc5)c4)cccc23)cc(OC)c1` gave a GI50 of 1740 nM. Then `COc1cc(Nc2ncnc3c(NC(=O)Nc4ccc(F)cc4C(F)(F)F)cccc23)cc(OC)c1`, with 2970 nM; and `COc1cc(Nc2ncnc3c(NC(=O)c4cccc(N5CCN(C)CC5)c4)cccc23)cc(OC)c1`, with more than 20000 nM; and `COc1cc(Nc2ncnc3c(NC(=O)Nc4ccc(Cl)cc4Cl)cccc23)cc(OC)c1`, with 3060 nM. Compound `COc1cc(Nc2ncnc3c(NC(=O)Nc4ccc([N+](=O)[O-])cc4)cccc23)cc(OC)c1` came in with a GI50 of more than 20000 nM.

In turn, `COc1cc(Nc2ncnc3c(NC(=O)Nc4ccccc4Cl)cccc23)cc(OC)c1` gave a GI50 of 356 nM. Then `COc1cc(Nc2ncnc3c(NC(=O)c4ccc(N5CCN(C)CC5)cc4)cccc23)cc(OC)c1`, with 14200 nM.

Turning to `COc1cc(Nc2ncnc3c(NC(=O)Nc4cc(Cl)cc(Cl)c4)cccc23)cc(OC)c1`, the GI50 turned out to be 30.2 nM. `COc1cc(Nc2ncnc3c(NC(=O)Nc4ccc(Cl)c(C(F)(F)F)c4)cccc23)cc(OC)c1` yielded a GI50 of more than 20000 nM. Then `COc1cc(Nc2ncnc3c(NC(=O)Nc4ccc5c(c4)OCCO5)cccc23)cc(OC)c1`, with 2750 nM. `COc1cc(Nc2ncnc3c(NC(=O)c4cc(=O)c5ccccc5o4)cccc23)cc(OC)c1` registered a GI50 of more than 20000 nM. In the case of `COc1cc(Nc2ncnc3c(NC(=O)Nc4cc(C)cc(C)c4)cccc23)cc(OC)c1` it was 10100 nM; in that of `COc1cc(Nc2ncnc3c(NC(=O)Nc4ccc(C(F)(F)F)cc4)cccc23)cc(OC)c1`, 3920 nM.

With `COc1cc(NC(=O)Nc2cccc3c(Nc4cc(OC)cc(OC)c4)ncnc23)cc(OC)c1`, the GI50 came to 366 nM. Then `COc1cc(Nc2ncnc3c(NC(=O)Nc4ccc(Cl)cc4)cccc23)cc(OC)c1`, with 2490 nM; and `COc1cc(Nc2ncnc3c(NC(=O)Nc4ccc(Cl)c(Cl)c4)cccc23)cc(OC)c1`, with 6230 nM. Compound `COc1cc(Nc2ncnc3c(NC(=O)Nc4ccc(C)cc4C)cccc23)cc(OC)c1` came in with a concentration for 50% growth inhibition (GI50) of 1290 nM. Consider `COc1cc(Nc2ncnc3c(NC(=O)Nc4cccc(Cl)c4Cl)cccc23)cc(OC)c1`, for which growth was halved (GI50) at 63.2 nM. Compound `COc1cc(Nc2ncnc3c(NC(=O)Nc4cc(Cl)c(Cl)cc4Cl)cccc23)cc(OC)c1` registered a GI50 of 4890 nM.

`COc1cc(Nc2ncnc3c(NC(=O)c4ccc(CN(C)C)cc4)cccc23)cc(OC)c1`: growth was halved (GI50) at 4370 nM. In the case of `COc1cc(Nc2ncnc3c(NC(=O)Nc4cccc(C(F)(F)F)c4F)cccc23)cc(OC)c1` it was 471 nM; in that of `COc1cc(Nc2ncnc3c(NC(=O)Nc4ccc(C(F)(F)F)cc4Cl)cccc23)cc(OC)c1`, 1080 nM; in that of `COc1cc(Nc2ncnc3c(NC(=O)Nc4cccc(Oc5ccccc5)c4)cccc23)cc(OC)c1`, 14000 nM.

The compound `COc1cc(Nc2ncnc3c(NC(=O)Nc4ccc(F)cc4F)cccc23)cc(OC)c1` displayed a GI50 of 2460 nM. As to `COc1cc(Nc2ncnc3c(NC(=O)Nc4ccc(C)c(C)c4)cccc23)cc(OC)c1`, halving of growth (GI50) required 8.8 nM. The compound `COc1cc(Nc2ncnc3c(NC(=O)Nc4cc(C(F)(F)F)cc(C(F)(F)F)c4)cccc23)cc(OC)c1` showed a GI50 of 467 nM.

`COc1cc(CCc2cc(NC(=O)c3ccc(N4C[C@@H](C)N[C@@H](C)C4)cc3)n[nH]2)cc(OC)c1` [FEXAGRATINIB] came in with a GI50 of 29.2 nM.

`CCN(CC)CCCCNc1ncc2cc(-c3cc(OC)cc(OC)c3)c(NC(=O)NC(C)(C)C)nc2n1` [PD-173074] showed a GI50 of 15 nM.
